Measurements taken from patent US10391111B2, “Composition for preventing or treating cervical cancer including gypenoside LXXV” (INTELLIGENT SYNTHETIC BIOLOGY CENTER, priority 2015, dated 2019).
“Also recorded” adds a separate entry of the source. Like-named read-outs stand apart in the source and are kept apart here.

Test system: HeLa cells
Test: MTT assay of HeLa cell viability (cytotoxic / anti-proliferative effect)
Type: cell-based
Conditions: for inhibition of HeLa cells: 50 μM; for effect on cell division: HeLa cells, 2.5 μM to 100 μM; for CC50: read-out: LC50 values against HeLa cells
Description: HeLa cells were cultured in DMEM (Dulbecco's Modified Eagle's Medium) containing 10% FBS, 2 mmol/L of glutamine, 100 U/mL penicillin, and […] of streptomycin at 37° C. under 5% CO2 condition. An appropriate amount of GypLXXV in DMSO (dimethyl sulfoxide) was taken according to a final concentration as described and added to the culture medium.
In vitro chemosensitivity was measured by MTT (dimethyl thiazolyl-2,5-diphenyltetrazolium bromide) assay (CellTiter 96® Non-Radioactive Cell Proliferation Assay kit. Promega), 100 μl of HeLa cells were dispensed at a density of 10^4 cells per well in a 96-well plate, and incubated for 24 hrs. To measure anti-proliferative effects of GypLXXV. Rg3(S). Rb1 and GypXVII, 2.5 μM to 100 μM of the compound was diluted with a FBS-free medium, and added to each well. Thereafter, the cells treated with the compound were incubated at 37° C. for 48 hrs, and MTT was added to each well, followed by further incubation for 4 hrs. After aspiration of the culture medium, formazan formed from MTT was dissolved in 100 μl of solubilization/stop solution. Thereafter, optical density of each well was measured at a wavelength of 595 nm using a microplate reader. Results were expressed as LC50 values analyzed using a GraphPad Prism 5 program.

SMILES | inhibition of HeLa cells (48 hrs) | anti-cancer / anti-proliferative effect compared with the other compounds (FIG. 2) (HeLa cell viability, 48 hrs) | effect on cell division | CC50 (Homo sapiens, HeLa, 48 h) [µM] | CC50 (MTT assay, 48 hrs incubation, 2.5 μM to 100 μM compound, FBS-free medium) [µM]
CC(C)=CCC[C@](C)(O[C@@H]1O[C@H](CO[C@@H]2O[C@H](CO)[C@@H](O)[C@H](O)[C@H]2O)[C@@H](O)[C@H](O)[C@H]1O)[C@H]1CC[C@]2(C)[C@@H]1[C@H](O)C[C@@H]1[C@@]3(C)CC[C@H](O)C(C)(C)[C@@H]3CC[C@]12C [GypLXXV, gypenoside LXXV] | almost all HeLa cells were inhibited | anti-proliferative activity similar to that of Rg3(S); also recorded: higher anti-cancer effects than those of Rb1 or GypXVII | decreased cell division in a dose-dependent manner | 29.9 | 
CC(C)=CCC[C@](C)(O)[C@H]1CC[C@]2(C)[C@@H]1[C@H](O)C[C@@H]1[C@@]3(C)CC[C@H](O[C@@H]4O[C@H](CO)[C@@H](O)[C@H](O)[C@H]4O[C@@H]4O[C@H](CO)[C@@H](O)[C@H](O)[C@H]4O)C(C)(C)[C@@H]3CC[C@]12C [Rg3(S), 20(S)-ginsenoside-Rg3, reference compound] | almost all HeLa cells were inhibited |  | decreased cell division in a dose-dependent manner |  | 23.5
